Columns and labels:
[1] = system: Escherichia Coli SKF 12140; experiment: Speed of sterilising action, Escherichia Coli (Table 3); assay type: cell-based
Description: (§1) The strains, inoculants, culture broths and experimental methods are as already seen for calculating the M.I.C. in vitro. The antimicrobic substances were tested at concentrations of 0.1, 0.25, 0.5 and 1 g/l, the contact times taken into consideration are 0, 1, 2.5, 5, 7.5, 10, 15, 30 and 60 minutes.
(§2) The samples which at the 7th day of incubation still had no growth of micro-organisms which could be observed macroscopically and/or microscopically were considered sterile.
(§3) The results are recorded in Table 3 in terms of sterilization time expressed in minutes.

[2] = Acute oral toxicity in mice (Table 4); conditions: mouse, in vivo, po
Description: (§4) The substances were administered orally to groups of 10 female mice CF1 of average weight of about 20 grams, in aqueous solution and in such way that the total volume administered would be in each case 1 ml/100 g of weight.

[3] = system: Trichomonas Vaginalis ISM 66/22; experiment: Speed of sterilising action, Trichomonas Vaginalis (Table 3); assay type: cell-based
Description: as §1, §2, §3

[4] = system: Trichophyton Mentagrophytes Ist. Pasteur; experiment: Speed of sterilising action, Trichophyton Mentagrophytes (Table 3); assay type: cell-based
Description: as §1, §2, §3

Staph.Aureus Tour = experiment: M.I.C. in vitro, gram+ Staph. Aureus (Table 1); assay type: cell-based, Staphylococcus Aureus; conditions: for MIC: Staphylococcus aureus
Description: (§5) The method for evaluating the activity in vitro against bacteria, fungi and protozoa consists in introducing calculated quantities of the substance, the activity of which it is desired to test, into culture media already inoculated with a predetermined number of test germs.
(§6) After 24 or 48 hours of incubation at 30° or 37° C., according to the micro-organism being tested, it is possible to evaluate the growth of the same in the culture broth; in this manner the minimum concentration (M.I.C.) which inhibits the growth of the micro-organisms in vitro is determined.
(§7) In table 1 there are recorded the M.I.C. values in γ/ml of the products subject of the present invention, against certain gram+ and gram- bacterial strains, some of which are pathogenic towards human beings.

Diplococcus Pneum. ISM = experiment: M.I.C. in vitro, gram+ Diplococcus Pneum. (Table 1); assay type: cell-based
Description: as §5, §6, §7

Pseudomonas Aeruginosa = experiment: Antibacterial activity in vivo with topical treatment (Table 5); parameters: species or system female CF1 albino mice; conditions: for animals alive on the 15th day / animals dead on the 15th day: 10 animals; for % survivors: topical, 15th day
Description: After their backs have been shaved, female CF1 albino mice weighing 18-22 g are scorched (under ether anaesthetic) for 15 seconds with a pad of brass previously immersed in boiling water (7-8% of the body surface). After 90 minutes there is applied to the scorched area 0.1 ml of a suspension of Pseudomonas Aeruginosa bacteria having 15% transmittance at 650 nm. The bacterial strain in question produces a high incidence of mortality, induced by septicemic diffusion from the point of infection. After 90 minutes, with the aid of a glass rod suitably flattened at one end, the preparation containing a known concentration of the compound under examination is applied locally. The treatment is continued for a total of six days (once per day). On the fifteenth day the percentage of survivors to the tested doses in recorded.
The carrier used for applying the compounds under examination is an aqueous 0.75% solution of carboxymethyl-cellulose. The concentrations of the compounds tested are 2, 1, 0.5 and 0.25% by weight.

[5] = system: Streptococ. Henclyt. 0203; experiment: M.I.C. in vitro, gram+ Streptococ. Henclyt. (Table 1); assay type: cell-based
Description: as §5, §6, §7

[6] = system: Staphylococcus Aureus Tour; experiment: Speed of sterilising action, Staphylococcus Aureus (Table 3); assay type: cell-based
Description: as §1, §2, §3

Esch. Coli. SKF 12140 = experiment: M.I.C. in vitro, gram- Esch. Coli (Table 1); assay type: cell-based, Escherichia Coli; conditions: for MIC: Escherichia coli
Description: as §5, §6, §7

Klens. Pneum. ISM = experiment: M.I.C. in vitro, gram- Klens. Pneum. (Table 1); assay type: cell-based
Description: as §5, §6, §7

[7] = system: Trichophyton Mentagrophytes; experiment: Topical activity upon dermatophytis from Trichophyton in cavies (Table 6); assay type: in vivo, Albino cavies
Description: Albino cavies of 250-300 g are infected, after depilation and scarification of a circular area of dorsal skin upon which there are supplied 0.1 ml of a suspension of microconidia of Trichophyton Mentagrophytes from the Pasteur Institute collection, obtained from a culture of 15 days upon Saboureaud agar. 24 Hours after infection topical treatment is started and is continued for two weeks (once per day).
The compounds to be tested are dissolved or suspended at the desired concentration, in a water-alcohol mixture (75/25 v/v) containing 0.75% by weight of carboxymethyl-cellulose (CMC). […] Each single application is carried out using 0.25 ml of the suspension or solution obtained as described above.
Fourteen days after infection the lesions are assessed. Assessment is carried out by attributing index numbers depending upon the seriousness of the lesions formed, as follows:
The substances under examination were tested at concentrations of 5 and 2.5% by weight.

Candida albicans = experiment: Activity upon vaginal candidiasis in mice (Table 7); assay type: in vivo, female Swiss mice (Charles River CD1); conditions: for no. of animals surviving: 8 animals
Description: The treatment groups consist each of 8 female Swiss mice (Charles River CD1) of average weight 20 g. The animals are infected with 0.025 ml of a 24 hour culture of Candida albicans, equal to 10^6 cellules.
0.025 ml of a suspension in lanoline of the compound to be tested, at the desired concentration, are applied locally twice a day for a week, the first treatment being started five hours after infection.
The control group is treated with the lanoline alone in the same way. On the eighth day vaginal washings are carried out with 0.025 ml of sterile physiological solution, and the liquid is sown in Petri dishes containing Bacto Biggy Agon Difco as a selective growing medium for the Candida.
After 48 hours of incubation of the dishes at 30° C. a count is taken of the colonies which have grown. Assessment of the activity is quantized using the indices listed here below:
The results are expressed as percentages of the average index of seriousness of the infection A.D.I. (Average Degree of Infection) in the animals treated with respect to the animals in the control group.
The substances under examination were tested at concentrations of 5 and 3% by weight.

Pseudom.Aer. ATCC 1014 = experiment: M.I.C. in vitro, gram- Pseudom. Aer. (Table 1); assay type: cell-based, Pseudomonas Aeruginosa; conditions: for MIC: Pseudomonas aeruginosa
Description: as §5, §6, §7

[8] = system: Candida Albicans SKF 2270; experiment: Speed of sterilising action, Candida Albicans (Table 3); assay type: cell-based
Description: as §1, §2, §3

Proteus Vulc. ATCC 881 = experiment: M.I.C. in vitro, gram- Proteus Vulc. (Table 1); assay type: cell-based
Description: as §5, §6, §7

[9] = system: Trych. Mentagr. 1st.Pastuer; experiment: MIC mildews, Trichophyton mentagrophytes (Table 2); assay type: cell-based; conditions: Sabourand broth
Description: as §5, §6
(§8) Inoculation with Trichophyton mentagrophytes and Microsporum canis was effected in a ratio of 1% of the volume of medium used.
(§9) For the fungi Sabourand broth was used as a culture medium, whilst for the protozoa Kupferberg Trichomonas broth with 5% of horse serum was used.

mice = experiment: Acute oral toxicity in mice (Table 4); conditions: oral, mice, 14 days; 20160 min
Description: as §4

[10] = system: Trich. Vaginalis ISM 66/22; experiment: MIC protozoa, Trichomonas vaginalis (Table 2); assay type: cell-based; conditions: +10% serum (head); Kupferberg Trichomonas broth with 5% of horse serum
Description: as §5, §6
(§10) Inoculation with Trichomonas vaginalis and Trichomonas foetus, obtained from cultures transplanted every other day to make them lively, was effected in a ratio of 3.5% of the volume of medium used.
as §9

Candida Albic. SKF 2270 = experiment: MIC yeasts, Candida albicans (Table 2); assay type: cell-based; conditions: Sabourand broth
Description: as §5, §6
(§11) Inoculation with Candida albicans or Candida pseudotropicalis was made by diluting cultures grown for 24 h at 30° C. (cellular density inoculated 10^3 /ml).
as §9

Trich. Foetus ISM 66/23 = experiment: MIC protozoa, Trichomonas foetus (Table 2); assay type: cell-based; conditions: +10% serum (head); Kupferberg Trichomonas broth with 5% of horse serum
Description: as §5, §6, §10, §9

[11] = system: Nicrosporum Canis ATCC 11621; experiment: MIC mildews, Microsporum canis (Table 2); assay type: cell-based; conditions: Sabourand broth
Description: as §5, §6, §8, §9

[12] = system: Candida Pseudotrop. ATCC 2512; experiment: MIC yeasts, Candida pseudotropicalis (Table 2); assay type: cell-based; conditions: Sabourand broth
Description: as §5, §6, §11, §9

CCCCCCCCCCCCCCCC[n+]1ccccc1 [Cetyl pyridine chloride, cetyl pyridine chloride, reference compound]
sterilization time ([1]; 0.1 g/l): > 60 min
sterilization time ([1]; 0.25 g/l): > 60 min
sterilization time ([1]; 0.5 g/l): > 60 min
sterilization time ([1]; 1 g/l): > 60 min
LD50 at 336 h [2]: 275 mg/kg
sterilization time ([3]; 0.1 g/l): 5 min
sterilization time ([3]; 0.25 g/l): 2.5 min
sterilization time ([3]; 0.5 g/l): 1 min
sterilization time ([3]; 1 g/l): 1 min
sterilization time ([4]; 0.1 g/l): 60 min
sterilization time ([4]; 0.25 g/l): 60 min
sterilization time ([4]; 0.5 g/l): 30 min
sterilization time ([4]; 1 g/l): 5 min
MIC (Staph.Aureus Tour; +10% serum): 10 µg/mL
MIC (Staph.Aureus Tour; without serum): 0.1 µg/mL
MIC (Diplococcus Pneum. ISM; +10% serum): 10 µg/mL
MIC (Diplococcus Pneum. ISM; without serum): 1 µg/mL
animals alive on the 15th day (Pseudomonas Aeruginosa; 0.25% by weight): 1
animals dead on the 15th day (Pseudomonas Aeruginosa; 0.25% by weight): 9
% survivors (Pseudomonas Aeruginosa; 0.25% by weight): 10%
animals alive on the 15th day (Pseudomonas Aeruginosa; 0.5% by weight): 3
animals dead on the 15th day (Pseudomonas Aeruginosa; 0.5% by weight): 7
% survivors (Pseudomonas Aeruginosa; 0.5% by weight): 30%
animals alive on the 15th day (Pseudomonas Aeruginosa; 1% by weight): 2
animals dead on the 15th day (Pseudomonas Aeruginosa; 1% by weight): 8
% survivors (Pseudomonas Aeruginosa; 1% by weight): 20%
animals alive on the 15th day (Pseudomonas Aeruginosa; 2% by weight): 4
animals dead on the 15th day (Pseudomonas Aeruginosa; 2% by weight): 6
% survivors (Pseudomonas Aeruginosa; 2% by weight): 40%
MIC ([5]; +10% serum): 5 µg/mL
MIC ([5]; without serum): 0.5 µg/mL
sterilization time ([6]; 0.1 g/l): 7.5 min
sterilization time ([6]; 0.25 g/l): 2.5 min
sterilization time ([6]; 0.5 g/l): 1 min
sterilization time ([6]; 1 g/l): 1 min
MIC (Esch. Coli. SKF 12140; +10% serum): > 100 µg/mL
MIC (Esch. Coli. SKF 12140; without serum): 5 µg/mL
MIC (Klens. Pneum. ISM; +10% serum): > 100 µg/mL
MIC (Klens. Pneum. ISM; without serum): 5 µg/mL
A.D.I. (% of control group) ([7]; 2.5% by weight): 81.27%
healing % (100-A.D.I. %) ([7]; 2.5% by weight): 18.73%
A.D.I. (% of control group) ([7]; 5% by weight): 49.81%
healing % (100-A.D.I. %) ([7]; 5% by weight): 50.19%
evaluation of seriousness of infection (A.D.I.) ([7]; 5% by weight, average index): 1.33
% of healing (100-A.D.I. %) (Candida albicans; 3% by weight): 15.97%
A.D.I. (compared with controls) (Candida albicans; 3% by weight): 84.03%
no. of animals surviving (Candida albicans; 3% by weight): 6
no. of animals surviving (Candida albicans; 5% by weight): 2
death of treated animals (Candida albicans; highest dose, before the end of the experiment): 75%
mortality (Candida albicans; lower dose): 25%
MIC (Pseudom.Aer. ATCC 1014; ATCC1014, +10% serum): > 200 µg/mL
MIC (Pseudom.Aer. ATCC 1014; ATCC1014, without serum): 200 µg/mL
sterilization time ([8]; 0.1 g/l): 60 min
sterilization time ([8]; 0.25 g/l): 10 min
sterilization time ([8]; 0.5 g/l): 10 min
sterilization time ([8]; 1 g/l): 10 min
MIC (Proteus Vulc. ATCC 881; +10% serum): > 100 µg/mL
MIC (Proteus Vulc. ATCC 881; without serum): 20 µg/mL

CCCCCCCCCC[N+](CC)(CC)CCNC(=O)C12CC3CC(CC(C3)C1)C2 [Example 10, n-Decyl-diethyl-(1-adamantane-carbonylamido)-ethyl-ammonium chloride]
MIC ([9]; +10% serum): 50 µg/mL
MIC ([9]; without serum): 0.5 µg/mL
LD50 (mice): 1050 mg/kg
M.I.C. (Staph.Aureus Tour; +10% serum): 10 µg/mL
M.I.C. (Staph.Aureus Tour; without serum): 0.2 µg/mL
MIC [10]: 10 µg/mL
M.I.C. (Diplococcus Pneum. ISM; +10% serum): 10 µg/mL
M.I.C. (Diplococcus Pneum. ISM; without serum): 2 µg/mL
M.I.C. ([5]; +10% serum): 5 µg/mL
M.I.C. ([5]; without serum): 0.5 µg/mL
MIC (Candida Albic. SKF 2270; +10% serum): 50 µg/mL
MIC (Candida Albic. SKF 2270; without serum): 0.5 µg/mL
M.I.C. (Esch. Coli. SKF 12140; +10% serum): 100 µg/mL
M.I.C. (Esch. Coli. SKF 12140; without serum): 10 µg/mL
MIC (Trich. Foetus ISM 66/23): 5 µg/mL
M.I.C. (Klens. Pneum. ISM; +10% serum): 100 µg/mL
M.I.C. (Klens. Pneum. ISM; without serum): 10 µg/mL
MIC ([11]; +10% serum): 50 µg/mL
MIC ([11]; without serum): 0.5 µg/mL
MIC ([12]; +10% serum): 50 µg/mL
MIC ([12]; without serum): 2 µg/mL
M.I.C. (Pseudom.Aer. ATCC 1014; +10% serum): > 100 µg/mL
M.I.C. (Pseudom.Aer. ATCC 1014; without serum): 50 µg/mL
M.I.C. (Proteus Vulc. ATCC 881; +10% serum): 100 µg/mL
M.I.C. (Proteus Vulc. ATCC 881; without serum): 10 µg/mL
